Source: US20240122214A1, “COMPOSITIONS, METHOD OF MAKING AND METHOD OF USE THEREOF” (EPC NATURAL PRODUCTS CO., LTD, priority 2014, published 2024)
Read-outs that look alike come from different tables or passages of the source.

Legend:
Caco-2 cell layers = test: Caco-2 barrier integrity: TEER and xylitol passage (Example 2); format: cell-based, Human; details: 1 g/L xylitol reference
Method: Caco-2 cells were seeded on 0.4 μm trans-well inserts for monolayer formation and fast differentiation. […] Therefore, cell culture medium containing 13.5 g/L glucose and 1 g/L xylitol with or without the indicated concentrations of rubusoside plant extract or phloretin was placed as donor solution onto the apical compartment. The effect on barrier integrity was analyzed by measuring TEER after 0, 0.5, 1, 1.5, 2 and 3 hours (Panels A, C and E) and by including xylitol as a reference substance for the paracellular permeability of the cell layer (Panels B, D and F). Xylitol concentrations of the samples taken were measured by HPLC. Error bars are based on the standard error of the mean (n=2).
Caco-2 (165,000 cells/insert) cells were seeded on 0.4 μm trans-well inserts for monolayer formation and fast differentiation (enterocyte differentiation medium). […] Briefly, cell culture medium containing 13.5 g/L glucose and 1 g/L xylitol with or without the indicated concentrations of rubusoside plant extract or phloretin was placed as donor solution onto the apical compartment. Samples were collected from the basolateral compartment (HEPES buffer) after 0, 0.5, 1, 1.5, 2 and 3 hours. Glucose and xylitol concentrations of the samples were measured by HPLC. Cell layer integrity was confirmed by TEER measurements (Millicell ERS-2 Voltometer) at each sampling time point.

[1] = test system: glucose transport across the Caco-2 cell monolayer; test: Glucose transport assay in Caco-2 trans-well model (Example 2); format: cell-based, Human; details: 0-3 h, result in words
Method: Caco-2 cells were seeded on 0.4 μm trans-well inserts for monolayer formation and fast differentiation. On day 5, glucose transport across the cell monolayer was performed. […] Samples were collected from the basolateral compartment (HEPES buffer) after 0, 0.5, 1, 1.5, 2 and 3 hours. Glucose concentrations of the samples were measured by HPLC. […] Error bars are based on the standard error of the mean (n=2). *p<0.05 indicates a significant difference from the control (two-way ANOVA, Tukey's multiple comparison test).
Caco-2 (165,000 cells/insert) cells were seeded on 0.4 μm trans-well inserts for monolayer formation and fast differentiation (enterocyte differentiation medium). On day 5, glucose transport across the cell monolayer was performed. […] Samples were collected from the basolateral compartment (HEPES buffer) after 0, 0.5, 1, 1.5, 2 and 3 hours. Glucose and xylitol concentrations of the samples were measured by HPLC. Cell layer integrity was confirmed by TEER measurements (Millicell ERS-2 Voltometer) at each sampling time point.

[2] = test system: glucose transport across the Caco-2 cell monolayer; test: Glucose transport assay in Caco-2 trans-well model (Example 1); format: cell-based; details: Homo sapiens, 13.5 g/L glucose apical, phloretin 100 mg/L, read-out: Glucose transport compared to untreated control [% of control]
Method: Caco-2 cells were seeded on 0.4 μm trans-well inserts for monolayer formation and fast differentiation. On day 5, glucose transport across the cell monolayer was performed. Therefore, cell culture medium containing 13.5 g/L glucose and 1 g/L xylitol with or without the indicated dilutions of extracts or phloretin (100 mg/L) was placed as donor solution onto the apical compartment. Samples were collected from the basolateral compartment (HEPES buffer) after 0, 0.5, 1, 1.5, and 2 hours. Glucose concentrations of the samples were measured by HPLC.
Caco-2 cells were seeded on 0.4 1.tm trans-well inserts for monolayer formation and fast differentiation (enterocyte differentiation medium). On day 5, glucose transport across the cell monolayer was performed. Therefore, cell culture medium containing 13.5 g/L glucose and 1 g/L xylitol with or without the indicated concentrations of rubusoside plant extract or phloretin was placed as donor solution onto the apical compartment. Samples were collected from the basolateral compartment (HEPES buffer) after 0, 0.5, 1, 1.5, and 2 hours. Glucose and xylitol concentrations of the samples were measured by HPLC. Cell layer integrity was confirmed by TEER measurements (Millicell ERS-2 Voltometer) at each sampling time point.

[3] = depends on the tested concentration compared with sucrose; cited from earlier work

| Compound | xylitol permeability of treated cell layers (Caco-2 cell layers) | inhibitory effect on glucose transport [1] | activity at 100 µg/mL ([2]; 0.5 h) [%] | activity at 100 µg/mL ([2]; 1.0 h) [%] | times sweeter than sucrose [3] |
| --- | --- | --- | --- | --- | --- |
| O=C(CCc1ccc(O)cc1)c1c(O)cc(O)cc1O [Phloretin, phloretin] | highest | strongly reduced glucose absorption | 36 | 54 |  |
| OC[C@H]1O[C@H](O[C@]2(CCl)O[C@H](CCl)[C@@H](O)[C@@H]2O)[C@H](O)[C@@H](O)[C@H]1Cl [sucralose] |  |  |  |  | about 600 times |
| O=S(=O)([O-])NC1CCCCC1.[Na+] [sodium cyclamate] |  |  |  |  | about 30 times |
| thaumatin |  |  |  |  | about 2000 times |
